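Each compound was tested at five concentrations against cells in 96-well plates for 48 hours. GI50 is the concentration that inhibits growth by half.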 Activity calls are given as the source filed them. No stated cut-off is given here; in the data, active = GI50 up to about 1.1 µM and inactive = higher.
Experiments:
Assay in all cases: inhibition of tumour cell growth, NCI panel, 48 h
[1] = tested on: UO-31
[2] = tested on: SK-OV-3
[3] = tested on: HL-60
[4] = tested on: SNB-75
[5] = tested on: UACC-62
[6] = tested on: HCT-15
[7] = tested on: HOP-92
[8] = tested on: LOX IMVI
[9] = tested on: NCI-H522
[10] = tested on: OVCAR-5
[11] = tested on: SF-295
[12] = tested on: HCT-116
[13] = tested on: 786-0
[14] = tested on: OVCAR-3
[15] = tested on: Malme-3M
[16] = tested on: MOLT-4
[17] = tested on: MCF7
[18] = tested on: MDA-N
[19] = tested on: DU-145

Compound: CC(=O)Nc1ccccc1S(=O)(=O)c1ccccc1
- GI50 [1]: > 100 µM (inactive)
- GI50 [2]: > 100 µM (inactive)
- GI50 [3]: > 100 µM (inactive)
- GI50 [4]: > 100 µM (inactive)
- GI50 [5]: > 100 µM (inactive)
- GI50 [6]: > 100 µM
- GI50 [7]: 43.9 µM (inactive)
- GI50 [8]: > 100 µM (inactive)
- GI50 [9]: > 100 µM (inactive)
- GI50 [10]: 0.0409 µM (active)
- GI50 [11]: > 100 µM (inactive)
- GI50 [12]: > 100 µM (inactive)
- GI50 [13]: > 100 µM (inactive)
- GI50 [14]: > 100 µM (inactive)
- GI50 [15]: > 100 µM (inactive)
- GI50 [16]: > 100 µM (inactive)

Compound: CCCCCCCCCCCCC(Br)C(=O)SCCNC(=O)CCNC(=O)[C@@H](O)C(C)(C)COP(=O)(O)OP(=O)(O)OCC1OC(n2cnc3c(N)ncnc32)C(O)C1OP(=O)(O)O (stereo partly specified)
- GI50 [1]: > 56.5 µM (inactive)
- GI50 [2]: > 56.5 µM (inactive)
- GI50 [3]: > 56.5 µM (inactive)
- GI50 [4]: > 56.5 µM (inactive)
- GI50 [5]: > 56.5 µM (inactive)
- GI50 [6]: > 56.5 µM
- GI50 [7]: > 56.5 µM (inactive)
- GI50 [8]: 28.1 µM (inactive)
- GI50 [9]: > 56.5 µM (inactive)
- GI50 [10]: > 56.5 µM (inactive)
- GI50 [11]: > 56.5 µM (inactive)
- GI50 [12]: 22 µM (inactive)
- GI50 [13]: > 56.5 µM (inactive)
- GI50 [14]: > 56.5 µM (inactive)
- GI50 [15]: > 56.5 µM (inactive)

Compound: C=C1C(=O)C23C(CC(OC(C)=O)C1[C@@H]2OC(C)=O)C1(C)C(OC(C)=O)CCC(C)(C)C1C[C@@H]3OC(C)=O (stereo partly specified)
- GI50 [1]: 1.8 µM (inactive)
- GI50 [2]: 1.97 µM (inactive)
- GI50 [3]: 0.0771 µM (active)
- GI50 [4]: 1.52 µM (inactive)
- GI50 [5]: 1.9 µM (inactive)
- GI50 [6]: 1.23 µM
- GI50 [7]: 0.167 µM (active)
- GI50 [8]: 1.24 µM (inactive)
- GI50 [9]: 0.453 µM (active)
- GI50 [10]: 1.86 µM (inactive)
- GI50 [11]: 1.46 µM (inactive)
- GI50 [12]: 1.62 µM (inactive)
- GI50 [13]: 1.43 µM (inactive)
- GI50 [14]: 1.66 µM (inactive)
- GI50 [15]: 1.55 µM (inactive)
- GI50 [16]: 0.365 µM (active)

Compound: CSC[S+]([O-])C[C@H](CO)NC(=O)/C=C/c1c(C)[nH]c(=O)[nH]c1=O (stereo partly specified)
- GI50 [1]: 1.61 µM (inactive)
- GI50 [2]: 1.25 µM (inactive)
- GI50 [17]: 1.8 µM (inactive)
- GI50 [3]: 1.2 µM (inactive)
- GI50 [4]: 0.236 µM (active)
- GI50 [5]: 1.01 µM (active)
- GI50 [6]: 1.83 µM
- GI50 [7]: 0.257 µM (active)
- GI50 [8]: 1.11 µM (active)
- GI50 [9]: 0.731 µM (active)
- GI50 [10]: 2.06 µM (inactive)
- GI50 [11]: 0.457 µM (active)
- GI50 [12]: 1.66 µM (inactive)
- GI50 [13]: 1.74 µM (inactive)
- GI50 [14]: 1.13 µM (inactive)
- GI50 [15]: 0.492 µM (active)
- GI50 [16]: 1.92 µM (inactive)

Compound: COc1ccc(-c2coc3cc(OC)cc(O)c3c2=O)cc1 [4',7-DIMETHOXY-5-HYDROXYGENISTEIN]
- GI50 [18]: > 100 µM (inactive)
- GI50 [2]: > 100 µM (inactive)
- GI50 [17]: > 100 µM (inactive)
- GI50 [3]: > 100 µM (inactive)
- GI50 [4]: > 100 µM (inactive)
- GI50 [5]: > 100 µM (inactive)
- GI50 [6]: > 100 µM
- GI50 [7]: 7.41 µM (inactive)
- GI50 [8]: > 100 µM (inactive)
- GI50 [9]: > 100 µM (inactive)
- GI50 [19]: > 100 µM (inactive)
- GI50 [10]: > 100 µM (inactive)
- GI50 [11]: > 100 µM (inactive)
- GI50 [12]: > 100 µM (inactive)
- GI50 [13]: 25.8 µM (inactive)
- GI50 [14]: > 100 µM (inactive)
- GI50 [15]: > 100 µM (inactive)

Reference: ChEMBL document CHEMBL1201862, “PubChem BioAssay data set” (2004)
